{"source": "patent US10300065B2", "about": "“Method of treating or prevention of atherothrombotic events in patients with history of myocardial infarction” (ASTRAZENECA AB, priority 2015, dated 2019)", "key": {"[1]": {"experiment": "clinical", "format": "in vivo", "settings": "for concentration at 2 h: human, plasma, oral, post dose (2 h)", "protocol": "(§1) The pharmacokinetics (PK) and pharmacodynamics of the 60 mg bid dose had not previously been studied. […] 180 patients who had received >4 weeks of study medication had blood sampling in the morning pre-maintenance dose and again 2 h post-dose. All patients were receiving aspirin. […] Well-known VerifyNow® P2Y12 assay and light transmittance aggregometry (LTA; ADP 20 uM) were performed. Groups were compared using Kruskal-Wallis test with significance attached to P<0.01 to allow for multiple group comparisons."}, "[2]": {"tested_on": "patients with acute coronary syndrome", "settings": "cited from earlier work"}, "[3]": {"tested_on": "platelets", "settings": "either ticagrelor group"}, "[4]": {"tested_on": "platelets", "experiment": "VerifyNow P2Y12 assay (platelet reactivity, PRU), platelet function substudy", "format": "cell-based, human", "settings": "for VerifyNow % inhibition Post dose / VerifyNow PRU Post dose: 2 h post dose; for VerifyNow % inhibition Post dose / VerifyNow PRU Post dose / VerifyNow % inhibition Pre dose / VerifyNow PRU Pre dose: mean (SD)", "protocol": "as §1"}, "[5]": {"tested_on": "platelets", "experiment": "Light transmittance aggregometry (LTA; ADP 20 uM), platelet function substudy", "format": "cell-based, human", "settings": "for Emax: Homo sapiens, Platelet, mean (SD)", "protocol": "as §1"}}, "note": "Read-outs that look alike come from different tables or passages of the source."}
{"smiles": "CCCSc1nc(N[C@@H]2C[C@H]2c2ccc(F)c(F)c2)c2nnn([C@@H]3C[C@H](OCCO)[C@@H](O)[C@H]3O)c2n1", "note": "[Ticagrelor, (1S,2S,3R,5S)-3-[7-{[(1R,2S)-2-(3,4-difluorophenyl)cyclopropyl]amino}-5-(propylthio)-3H-[1,2,3]-triazolo[4,5-d]pyrimidin-3-yl]-5-(2-hydroxyethoxy)cyclopentane-1,2-diol]", "values": [{"measurement": "plasma ticagrelor levels lower with 60 mg vs 90 mg", "setting": "[1]; 60 mg vs 90 mg", "value": "approximately ⅓"}, {"measurement": "concentration at 2 h", "setting": "[1]; 60 mg bid", "value": 448, "unit": "ng/mL"}, {"measurement": "concentration at 2 h", "setting": "[1]; 90 mg bid", "value": 717, "unit": "ng/mL"}, {"measurement": "major adverse cardiovascular events including cardiovascular death compared with clopidogrel 75 mg once daily", "setting": "[2]; 90 mg twice daily added to aspirin for up to 1 year, acute coronary syndrome", "value": "reduced"}, {"measurement": "effect on pulmonary function", "setting": "[2]; PLATO substudy, 199 subjects, after one month or after at least 6 months of chronic treatment", "value": "no indication of an adverse effect on pulmonary function"}, {"measurement": "reports of gout", "setting": "[2]; PLATO, each treatment group", "value": 0.6, "unit": "%"}, {"measurement": "serum uric acid level increase from baseline", "setting": "[2]; PLATO, ticagrelor 90 mg bid", "value": "approximately 0.6 mg/dL"}, {"measurement": "VerifyNow Aspirin assay results vs placebo group", "setting": "[3]", "value": "no differences"}, {"measurement": "High platelet reactivity assessed by VerifyNow (PRU >208)", "setting": "[4]; 60 mg, post dose", "value": "absent"}, {"measurement": "High platelet reactivity assessed by VerifyNow (PRU >208), patients", "setting": "[4]; 60 mg, pre-dose", "value": 3.5, "unit": "%"}, {"measurement": "VerifyNow % inhibition Post dose", "setting": "[4]; ticagrelor 60 mg bid", "value": "90 (13) %"}, {"measurement": "VerifyNow PRU Post dose", "setting": "[4]; ticagrelor 60 mg bid", "value": "29 (39) PRU"}, {"measurement": "VerifyNow % inhibition Pre dose", "setting": "[4]; ticagrelor 60 mg bid", "value": "78 (20) %"}, {"measurement": "VerifyNow PRU Pre dose", "setting": "[4]; ticagrelor 60 mg bid", "value": "59 (63) PRU"}, {"measurement": "VerifyNow % inhibition Post dose", "setting": "[4]; ticagrelor 90 mg bid", "value": "92 (8) %"}, {"measurement": "VerifyNow PRU Post dose", "setting": "[4]; ticagrelor 90 mg bid", "value": "20 (19) PRU"}, {"measurement": "VerifyNow % inhibition Pre dose", "setting": "[4]; ticagrelor 90 mg bid", "value": "83 (14) %"}, {"measurement": "VerifyNow PRU Pre dose", "setting": "[4]; ticagrelor 90 mg bid", "value": "47 (43) PRU"}, {"measurement": "Platelet reactivity pre- and post-dose as measured by LTA", "setting": "[5]; 90 mg vs 60 mg", "value": "numerically but not significantly lower with 90 mg than 60 mg"}, {"measurement": "Emax", "setting": "[5]; 2 h, ticagrelor 60 mg bid, 2 h post dose, read-out: LTA Max response (maximum % aggregation response) Post dose", "value": 33, "unit": "%"}, {"measurement": "Emax", "setting": "[5]; 2 h, ticagrelor 90 mg bid, 2 h post dose, read-out: LTA Max response (maximum % aggregation response) Post dose", "value": 29, "unit": "%"}, {"measurement": "Emax", "setting": "[5]; ticagrelor 60 mg bid, pre dose, read-out: LTA Max response (maximum % aggregation response) Pre dose", "value": 39, "unit": "%"}, {"measurement": "Emax", "setting": "[5]; ticagrelor 90 mg bid, pre dose, read-out: LTA Max response (maximum % aggregation response) Pre dose", "value": 36, "unit": "%"}]}
